Experimental data from patent US12065443B2, “Compounds and pharmaceutical compositions thereof for the treatment of diseases” (priority 2017, dated 2024).
Like-named read-outs stand apart in the source and are kept apart here.

Experiments:
SIK1 [1] = biological target: T1, SIK1 (Homo sapiens, UniProt P57059); experiment: biochemical
T1 construct: purchased Carna Biosciences 02-131
Procedure, shortened: (§1)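 Read-out: ^33P incorporated into AMARA peptide, counted on filter plates, taken as kinase activity. Reactions start on addition of labeled/unlabeled ATP to enzyme plus substrate and end with phosphoric acid. Controls: 1% DMSO (negative) and 10 μM staurosporine (positive), final.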

SIK2 [2] = biological target: T2, SIK2 (Homo sapiens, UniProt Q9H0K1); experiment: biochemical; conditions: 33P radioactive SIK kinase assay, AMARA peptide, 10 μM ATP
T2 construct: purchased ThermoFisher Scientific PV4792
Procedure, shortened: as §1

SIK3 [3] = biological target: T3, SIK3 (Homo sapiens, UniProt Q9Y2K2); experiment: biochemical
T3 construct: purchased SignalChem S12-11G-100
Procedure, shortened: as §1

SIK1 [4] = biological target: T1, SIK1; experiment: biochemical; conditions: ADP-Glo SIK kinase assay
Procedure, shortened: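 ADP-Glo, RT throughout. Enz/substrate + ATP, 120 min; ADP-Glo reagent 40 min (ATP depletion); detection reagent 30 min; luminescence read. Neg ctrl 1% DMSO, pos ctrl 10 μM staurosporine, final concs.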

SIK2 [5] = biological target: T2, SIK2; experiment: biochemical; conditions: ADP-Glo SIK kinase assay
Procedure, shortened: (§2)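 ADP-Glo luminescent assay of ADP formed by SIK2 or SIK3 with substrate after ATP addition, 120 min at RT. Remaining ATP depleted 40 min, then ADP converted to ATP and read by luciferase luminescence after 30 min. Controls: 1% DMSO and 10 μM staurosporine (final).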

SIK3 [6] = biological target: T3, SIK3; experiment: biochemical; conditions: ADP-Glo SIK kinase assay
Procedure, shortened: as §2

[7] = system: LPS triggered IL-10 secretion in monocyte-derived macrophages (MdM); experiment: MdM assay: LPS-triggered IL-10 (ELISA); assay type: cell-based, human; conditions: maximal fold change vs LPS only, median across assays
Procedure, shortened: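 CD14+ monocytes isolated from human buffy-coat PBMCs and differentiated to macrophages for 10 days. Cells pre-treated with compound 1 h at 37° C (0.2% DMSO), then stimulated with 200 ng/mL LPS; IL-10 in supernatant at 2 h measured by ELISA (A450). Maximal fold change versus LPS only reported as median of two or more runs.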

[8] = system: LPS-induced TNFα secretion in monocyte-derived macrophages (MdM); experiment: MdM assay: LPS-triggered TNFα (ELISA); assay type: cell-based, human; conditions: Homo sapiens, Macrophage, LPS-triggered TNFα inhibition
Procedure, shortened: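 Human CD14+ monocytes isolated from buffy-coat PBMCs by magnetic beads, differentiated to macrophages; on day 10 compound preincubated 1 h at 37 °C, then LPS 200 ng/mL added (0.2% DMSO). Supernatant taken after 20 h; TNFα quantified by sandwich ELISA against standard curve.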

[9] = system: LPS driven TNFα secretion in Peripheral Blood Mononuclear Cells (PBMC); experiment: cells; assay type: cell-based; conditions: Homo sapiens, LPS 1 ng/mL, supernatant after 18-20 h, ELISA
Experimental: This assay measures the inhibition of LPS driven TNFα secretion by a test compound in Peripheral Blood Mononuclear Cells (PBMC), which in turn correlates with SIK inhibition.
PBMCs are isolated from human blood samples (buffy coats). The buffy coat is aseptically transferred into a 50 mL Falcon™ tube, and diluted 1/2 in Phosphate Buffered Saline (PBS). […] The tubes are centrifuged for 35 min at 400× g in temperature controlled centrifuge, without brake, at 25° C. PBMCs are aspirated from the white interface layer between sample and Lymphoprep. PBMCs are washed five times in PBS. […] The PBMCs are finally seeded at 400,000 PBMC/160 μL/96-well.
A compound dilution plate is made in 100% DMSO by 3-fold dilution of 10 mM stock solution of test compound. An intermediate dilution plate (10× final concentration) is made by diluting the compound dilution plate 50-fold in RPMI medium.
20 μL of the 10× final concentration compound is added to the cells and incubated for 1 hour at 37° C. before addition of trigger. No trigger conditions/trigger conditions are spiked with equal final DMSO concentrations of 0.2% DMSO. 20 μL of 10×LPS (final concentration 1 ng/mL) solution are added to all wells except for the ‘no trigger wells’ where 20 μL medium is added. Supernatant is collected after 18-20 h for IL-10 and TNFα determination using ELISA.
The plate is then washed once with PBST (PBS+0.05% Tween20) and once with PBS followed by the addition of 100 μL of blocking buffer (1% Bovine Serum Albumin (BSA)-5% Sucrose) and plates are sealed and incubated for at least 4 h at RT. After washing the plate once with PBST and once with PBS, 40 μL of standard or sample are added (TNFα standard curve is prepared using a 1/2 serial dilution starting from 16000 pg/mL; dilutions are made in dilution buffer (PBS+1% BSA)). Plates are washed twice with PBST, and once with PBS, after which 35 μL of the detection antibody is added (final concentration 0.25 μg/mL diluted in dilution buffer) and plates are incubated for at least 2 h at RT. Plates are washed twice with PBST, and once with PBS, where after 35 μL of Strep-HRP conjugate (0.5 μg/mL final concentration diluted in dilution buffer) is added. Plates are incubated in the dark, at RT for at least 45 min but no longer than 1 hour. Plates are washed twice with PBST, and once with PBS. Thereafter, 50 μL of luminol substrate is added to each well (prepared according to manufacturer's instructions), and incubated for 5 min at RT protected from light.
To measure the inhibition of LPS induced TNFα, percentage inhibition (PIN) values are calculated for all concentrations tested, compared to controls.
PIN values are plotted in concentration-response and EC50 values are derived using GraphPad Prism Software, applying 4-parameter nonlinear regression (sigmoidal) curve fitting.

[10] = 33P radioactive SIK kinase assay, AMARA peptide, 10 μM ATP, read-out: SIK1 IC50

T3 sequence (Q9Y2K2 whole entry): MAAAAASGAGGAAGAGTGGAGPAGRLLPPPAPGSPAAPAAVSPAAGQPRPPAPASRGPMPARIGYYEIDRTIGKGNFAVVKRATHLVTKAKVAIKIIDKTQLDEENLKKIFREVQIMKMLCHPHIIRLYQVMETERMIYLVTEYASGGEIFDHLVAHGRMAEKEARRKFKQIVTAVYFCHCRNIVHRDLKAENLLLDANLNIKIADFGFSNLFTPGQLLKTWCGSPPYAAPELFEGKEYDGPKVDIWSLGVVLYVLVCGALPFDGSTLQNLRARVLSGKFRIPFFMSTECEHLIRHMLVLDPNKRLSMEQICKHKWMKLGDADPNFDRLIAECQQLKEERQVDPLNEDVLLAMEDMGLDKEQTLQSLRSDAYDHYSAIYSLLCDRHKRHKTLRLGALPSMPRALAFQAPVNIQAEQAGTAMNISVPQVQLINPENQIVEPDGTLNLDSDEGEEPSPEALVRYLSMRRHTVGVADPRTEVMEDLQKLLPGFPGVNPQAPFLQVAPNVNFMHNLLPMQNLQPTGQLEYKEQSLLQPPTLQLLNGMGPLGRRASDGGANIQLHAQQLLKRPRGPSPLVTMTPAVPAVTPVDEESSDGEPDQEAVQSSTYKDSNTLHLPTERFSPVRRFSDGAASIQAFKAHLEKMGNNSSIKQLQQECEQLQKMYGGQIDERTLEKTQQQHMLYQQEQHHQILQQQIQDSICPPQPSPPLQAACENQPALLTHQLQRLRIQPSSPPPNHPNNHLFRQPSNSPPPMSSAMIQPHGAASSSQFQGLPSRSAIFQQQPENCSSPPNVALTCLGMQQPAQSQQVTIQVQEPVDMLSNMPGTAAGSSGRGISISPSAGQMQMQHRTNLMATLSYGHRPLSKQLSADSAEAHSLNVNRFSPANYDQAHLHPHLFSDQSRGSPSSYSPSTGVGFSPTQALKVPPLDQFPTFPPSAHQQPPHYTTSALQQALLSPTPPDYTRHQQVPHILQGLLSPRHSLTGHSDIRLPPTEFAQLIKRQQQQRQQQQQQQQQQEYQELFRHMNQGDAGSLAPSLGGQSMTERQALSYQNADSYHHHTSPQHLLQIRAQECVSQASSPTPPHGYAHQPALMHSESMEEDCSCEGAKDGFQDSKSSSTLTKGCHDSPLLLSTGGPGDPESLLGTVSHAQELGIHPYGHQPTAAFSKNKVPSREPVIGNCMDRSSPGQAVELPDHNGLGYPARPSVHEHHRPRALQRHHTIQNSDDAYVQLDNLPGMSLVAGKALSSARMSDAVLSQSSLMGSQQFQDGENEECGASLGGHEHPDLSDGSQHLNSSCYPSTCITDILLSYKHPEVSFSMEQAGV
T2 sequence (Q9H0K1 whole entry): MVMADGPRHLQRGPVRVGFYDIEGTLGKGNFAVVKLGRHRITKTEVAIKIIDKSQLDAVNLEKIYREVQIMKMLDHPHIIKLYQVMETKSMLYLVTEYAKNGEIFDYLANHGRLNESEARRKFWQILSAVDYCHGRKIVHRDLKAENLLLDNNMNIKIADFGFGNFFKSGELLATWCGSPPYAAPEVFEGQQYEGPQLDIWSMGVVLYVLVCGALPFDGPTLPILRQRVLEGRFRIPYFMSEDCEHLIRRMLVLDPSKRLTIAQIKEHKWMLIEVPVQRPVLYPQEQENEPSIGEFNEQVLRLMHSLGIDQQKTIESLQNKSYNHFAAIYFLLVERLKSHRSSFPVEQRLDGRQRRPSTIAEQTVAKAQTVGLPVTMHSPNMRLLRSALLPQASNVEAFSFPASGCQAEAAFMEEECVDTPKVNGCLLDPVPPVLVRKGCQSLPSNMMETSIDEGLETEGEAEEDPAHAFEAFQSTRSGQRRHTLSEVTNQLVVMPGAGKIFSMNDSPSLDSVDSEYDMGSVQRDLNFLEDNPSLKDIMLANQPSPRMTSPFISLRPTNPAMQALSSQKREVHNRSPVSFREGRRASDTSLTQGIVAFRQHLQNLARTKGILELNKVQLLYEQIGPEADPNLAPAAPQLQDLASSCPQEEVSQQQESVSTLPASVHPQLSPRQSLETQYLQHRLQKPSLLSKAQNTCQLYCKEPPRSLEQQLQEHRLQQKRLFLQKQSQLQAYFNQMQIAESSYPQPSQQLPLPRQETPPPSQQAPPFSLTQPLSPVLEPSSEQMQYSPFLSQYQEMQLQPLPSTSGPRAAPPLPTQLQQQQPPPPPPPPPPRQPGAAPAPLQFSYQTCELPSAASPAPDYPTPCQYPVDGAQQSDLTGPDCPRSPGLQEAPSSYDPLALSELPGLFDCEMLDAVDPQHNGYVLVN
T1 sequence (P57059 whole entry): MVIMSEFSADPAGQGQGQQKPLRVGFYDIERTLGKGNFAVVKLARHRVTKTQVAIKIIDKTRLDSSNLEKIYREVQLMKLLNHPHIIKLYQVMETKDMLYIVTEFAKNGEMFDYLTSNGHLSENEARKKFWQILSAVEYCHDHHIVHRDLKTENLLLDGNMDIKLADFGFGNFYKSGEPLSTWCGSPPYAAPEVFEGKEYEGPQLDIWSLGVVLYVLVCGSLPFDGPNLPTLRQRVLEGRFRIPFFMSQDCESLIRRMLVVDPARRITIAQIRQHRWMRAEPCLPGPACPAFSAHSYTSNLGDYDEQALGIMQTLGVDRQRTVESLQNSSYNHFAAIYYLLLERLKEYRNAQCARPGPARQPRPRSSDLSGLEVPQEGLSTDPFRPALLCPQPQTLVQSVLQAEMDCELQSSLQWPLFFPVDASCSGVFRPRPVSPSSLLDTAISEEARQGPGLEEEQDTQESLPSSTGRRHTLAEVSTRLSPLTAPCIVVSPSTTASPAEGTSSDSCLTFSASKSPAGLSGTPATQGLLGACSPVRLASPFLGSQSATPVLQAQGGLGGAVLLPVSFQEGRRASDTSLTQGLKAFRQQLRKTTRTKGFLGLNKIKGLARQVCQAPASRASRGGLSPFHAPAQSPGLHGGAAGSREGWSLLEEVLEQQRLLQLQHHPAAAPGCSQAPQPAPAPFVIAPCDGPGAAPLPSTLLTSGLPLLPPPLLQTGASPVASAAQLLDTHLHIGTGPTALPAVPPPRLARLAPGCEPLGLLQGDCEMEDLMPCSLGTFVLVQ

IC50 (SIK1 [1]; [10]) [nM]	IC50 (SIK2 [2]) [nM]	IC50 (SIK3 [3]) [nM]	IC50 (SIK1 [4]) [nM]	IC50 (SIK2 [5]) [nM]	IC50 (SIK3 [6]) [nM]	EC50 [8] [nM]	IC50 (SIK1 [1]) [nM]	Structure (SMILES)	IL-10 FCmax median [7]	EC50 [9] [nM]
10 to 100	0.01 to 10	0.01 to 10	0.01 to 10	0.01 to 10	0.01 to 10	0.1 to 100	–	COc1cc(-c2cnc3cc(-c4cnn(C)c4)ccn23)cc2c1C(=O)N(CC(F)(F)F)CC2 [Cpd 225, 8-methoxy-6-[7-(1-methylpyrazol-4-yl)imidazo[1,2-a]pyridin-3-yl]-2-(2,2,2-trifluoroethyl)-3,4-dihydroisoquinolin-1-one]	++ (>1.5-4.5)	–
0.01 to 10	0.01 to 10	0.01 to 10	0.01 to 10	0.01 to 10	0.01 to 10	0.1 to 100	–	CNc1cc(-c2cnc3cc(-c4cnn(C)c4)ccn23)cc(OC)c1C(=O)NCC(F)(F)F [Cpd 204]	++ (>1.5-4.5)	–
–	0.01 to 10	0.01 to 10	–	–	–	0.1 to 100	10 to 100	COc1cc(-n2cnc3cc(-c4cnn(C(C)C)c4)ccc32)cc(OC)c1C(=O)NCC(F)(F)F [compound 95, 4-[5-(1-isopropylpyrazol-4-yl)benzimidazol-1-yl]-2,6-dimethoxy-N-(2,2,2-trifluoroethyl)benzamide]	–	0.1 to 100
10 to 100	10 to 100	10 to 100	–	–	–	100 to 1000	–	COc1cc(-n2cnc3cc(-c4cc(C)no4)ccc32)cc(OC)c1C(=O)NCC(F)(F)F [compound 109, 2.6-dimethoxy-4-[5-(3-methylisoxazol-5-yl)benzimidazol-1-yl]-N-(2,2,2-trifluoroethyl)benzamide]	–	100 to 1000
0.01 to 10	0.01 to 10	0.01 to 10	0.01 to 10	0.01 to 10	0.01 to 10	0.1 to 100	–	COc1cc(-c2cnc3cc(-c4cnn(C)c4)ccn23)cc(OC)c1C(=O)NCC(F)F [compound 133, N-(2,2-difluoroethyl)-2,6-dimethoxy-4-[7-(1-methylpyrazol-4-yl)imidazo[1,2-a]pyridin-3-yl]benzamide]	++ (>1.5-4.5)	–
10 to 100	0.01 to 10	0.01 to 10	–	–	–	0.1 to 100	–	COc1cc(-n2cnc3cc(-c4cnn(C(F)F)c4)ccc32)cc(OC)c1C(=O)NCC(F)(F)F [compound 97, 4-[5-[1-(difluoromethyl)pyrazol-4-yl]benzimidazol-1-yl]-2,6-dimethoxy-N-(2,2,2-trifluoroethyl)benzamide]	–	0.1 to 100
10 to 100	10 to 100	10 to 100	–	–	–	100 to 1000	–	COc1cc(-n2cnc3cc(-c4cnn(C)c4)ccc32)cc(OC)c1C(=O)N1CC(C)(C)C1 [compound 179, [2,6-dimcthoxy-4-[5-(1-methylpyrazol-4-yl)benzimidazol-1-yl]phenyl]-(3,3-dimethylazetidin-1-yl)methanone]	–	100 to 1000
10 to 100	0.01 to 10	0.01 to 10	10 to 100	0.01 to 10	0.01 to 10	100 to 1000	–	COc1cc(-c2cnc3cc(-c4cn(C)cn4)ccn23)cc(OC)c1C(=O)N[C@H](C)C(F)(F)F [compound 215, 2,6-dimethoxy-4-[7-(1-methylimidazol-4-yl)imidazo[1,2-a]pyridin-3-yl]-N-[(1R)-2,2,2-trifluoro-1-methyl-ethyl]benzamide]	++ (>1.5-4.5)	–
10 to 100	10 to 100	10 to 100	10 to 100	10 to 100	10 to 100	100 to 1000	–	COc1cc(-n2cnc3cc(-c4cnn(C)c4)ccc32)cc(OC)c1C(=O)N1CC(F)(F)C1 [compound 142, (3,3-difluoroazetidin-1-yl)-[2,6-dimethoxy-4-[5-(1-methylpyrazol-4-yl)benzimidazol-1-yl]phenyl]methanone]	++ (>1.5-4.5)	–
10 to 100	0.01 to 10	0.01 to 10	–	–	–	100 to 1000	–	COc1cc(-n2cnc3cc(-c4cnn(CC(C)C)c4)ccc32)cc(OC)c1C(=O)NCC(F)(F)F [Cpd 110, 4-[5-(1-isobutylpyrazol-4-yl)benzimidazol-1-yl]-2,6-dimethoxy-N-(2,2,2-trifluoroethyl)benzamide]	–	0.1 to 100
10 to 100	0.01 to 10	0.01 to 10	–	–	–	100 to 1000	–	COc1cc(-c2cnc3cc(-c4cnn(C)c4)cnn23)cc(OC)c1C(=O)NCC(F)(F)F [compound 107]	–	0.1 to 100
0.01 to 10	0.01 to 10	0.01 to 10	–	–	–	100 to 1000	–	COc1cc(-n2cnc3cc(-c4cnn(C5CNC5)c4)ccc32)cc(OC)c1C(=O)NCC(F)(F)F [Cpd 94, 4-[5-[1-(azetidin-3-yl)pyrazol-4-yl]benzimidazol-1-yl]-2,6-dimethoxy-N-(2,2,2-trifluoroethyl)benzamide]	–	0.1 to 100
0.01 to 10	0.01 to 10	0.01 to 10	0.01 to 10	0.01 to 10	0.01 to 10	0.1 to 100	–	CCOC(=O)C(C)n1cc(-c2ccn3c(-c4cc(OC)c(C(=O)NCC(F)(F)F)c(OC)c4)cnc3c2)cn1 (centres unmarked) [compound 263, ethyl 2-[4-[3-[3,5-dimethoxy-4-(2,2,2-trifluoroethyl-carbamoyl)phenyl]imidazo[1,2-a]pyridin-7-yl]pyrazol-1-yl]propanoate]	++ (>1.5-4.5)	–
10 to 100	0.01 to 10	0.01 to 10	–	–	–	0.1 to 100	–	COc1cc(-n2cnc3cc(-c4cc(C)n[nH]4)ccc32)cc(OC)c1C(=O)NCC(F)(F)F [compound 101, 2,6-dimethoxy-4-[5-(3-methyl-1H-pyrazol-5-yl)benzimidazol-1-yl]-N-(2,2,2-trifluoroethyl)benzamide]	–	0.1 to 100
0.01 to 10	0.01 to 10	0.01 to 10	–	–	–	0.1 to 100	–	CCNC(=O)c1c(OC)cc(-c2cnn3cc(-c4cnn(C)c4)ccc23)cc1OC(F)F [compound 117, 2-(difluoromethoxy)-N-ethyl-6-methoxy-4-[6-(1-methylpyrazol-4-yl)pyrazolo[1,5-a]pyridin-3-yl]benzamide]	–	0.1 to 100
0.01 to 10	0.01 to 10	0.01 to 10	–	–	–	0.1 to 100	–	CCCn1cc(-c2ccc3c(c2)ncn3-c2cc(OC)c(C(=O)NCC(F)(F)F)c(OC)c2)cn1 [compound 103, 2,6-dimethoxy-4-[5-(1-propylpyrazol-4-yl)benzimidazol-1-yl]-N-(2,2,2-trifluoroethyl)benzamide]	–	0.1 to 100
0.01 to 10	0.01 to 10	0.01 to 10	–	–	–	0.1 to 100	–	COc1cc(-c2cnn3cc(-c4cnn(C)c4)ccc23)cc(OC)c1C(=O)NCC(F)(F)F [compound 99, 2,6-dimethoxy-4-[6-(1-methylpyrazol-4-yl)pyrazolo[1,5-a]pyridin-3-yl]-N-(2,2,2-trifluorocthyl)benzamide]	–	0.1 to 100
0.01 to 10	0.01 to 10	0.01 to 10	0.01 to 10	0.01 to 10	0.01 to 10	0.1 to 100	–	COc1cc(-c2cnc3cc(-c4cn[nH]c4)ccn23)cc(OC)c1C(=O)NCC(F)(F)F [compound 227, 2,6-dimethoxy-4-[7-(1H-pyrazol-4-yl)imidazo[1,2-a]pyridin-3-yl]-N-(2,2,2-trifluoroethyl)benzamide]	+++ (>4.5)	–
0.01 to 10	0.01 to 10	0.01 to 10	0.01 to 10	0.01 to 10	0.01 to 10	0.1 to 100	–	CCOC(=O)Cn1cc(-c2ccn3c(-c4cc(OC)c(C(=O)NCC(F)(F)F)c(OC)c4)cnc3c2)cn1 [compound 230, ethyl 2-[4-[3-[3,5-dimethoxy-4-(2,2,2-trifluoroethyl-carbamoyl)phenyl]imidazo[1,2-a]pyridin-7-yl]pyrazol-1-yl]acetate]	+++ (>4.5)	–
